Measurements published in paper PMC9097188, “Design, Synthesis, and Molecular Modeling Studies of a Novel Benzimidazole as an Aromatase Inhibitor” (ACS Omega, 2022).
Blank lines part the entries; values can stand above or below the compound they belong to.

Legend:
[1] = test system: HepG2 (human liver carcinoma cell line); experiment: MTT cytotoxicity assay, HepG2; format: cell-based; conditions: mean of four independent studies, read-out: IC50 against HepG2
Procedure: (§1) In this study, all compounds were tested for antiproliferative activity using an MTT assay with doxorubicin as a control against MCF-7 (human breast adenocarcinoma cell line), A549 (lung carcinoma cell line), HepG2 (human liver carcinoma cell line), HeLa (cervical cell line), and C6 (rat glioma cell line) cell lines. Table 1 summarizes the results of four independent studies as the mean IC50 value (half-maximum inhibitory concentration).
(§2) MTT tests were used to screen the anticancer activities of compounds 5a–i. The MTT assays were carried out as stated previously.[16],[17] The anticancer activity of the final compounds was tested on […]: A549 (lung carcinoma cell line), HeLa (cervical cell line), MCF-7 (human breast adenocarcinoma cell line), HepG2 (human liver carcinoma cell line), C6 (rat glioma cell line), and NIH3T3 […] (mouse embryo fibroblast cell line). In the MTT experiments, doxorubicin and Hoechst 33342 were employed as reference drugs.

[2] = test system: C6 (rat glioma cell line); experiment: MTT cytotoxicity assay, C6; format: cell-based; conditions: mean of four independent studies, read-out: IC50 against C6
Procedure: as §1, §2

[3] = test system: MCF-7 (human breast adenocarcinoma cell line); experiment: MTT cytotoxicity assay, MCF-7; format: cell-based; conditions: Homo sapiens, MCF7, MTT assay, mean of four independent studies; read-out: IC50 against MCF-7
Procedure: as §1, §2

[4] = test system: HeLa (cervical cell line); experiment: MTT cytotoxicity assay, HeLa; format: cell-based; conditions: Homo sapiens, mean of four independent studies, read-out: IC50 against HeLa
Procedure: as §1, §2

[5] = test system: A549 (lung carcinoma cell line); experiment: MTT cytotoxicity assay, A549; format: cell-based; conditions: Homo sapiens, mean of four independent studies, read-out: IC50 against A549
Procedure: as §1, §2

aromatase = conditions: 3D-QSAR data set, IC50 converted to pIC50; SI reference list; cited from earlier work

melting point: 133.4 to 135.8 °C
Compound: COc1ccc(-c2nc3ccc(-c4nnc(SCC(=O)N5CCN(Cc6ccc(F)cc6)CC5)o4)cc3[nH]2)cc1 [5f, 2-((5-(2-(4-Methoxyphenyl)-1H-benzo[d]imidazol-6-yl)-1,3,4-oxadiazol-2-yl)thio)-1-(4-(4-fluorobenzyl)piperazin-1-yl)ethan-1-one]
IC50 [1]: ≥ 100 µM
IC50 [2]: ≥ 100 µM
IC50 [3]: ≥ 100 µM
IC50 [4]: ≥ 100 µM
IC50 [5]: ≥ 100 µM

melting point: 138.2 to 140.1 °C
Compound: COc1ccc(-c2nc3ccc(-c4nnc(SCC(=O)N5CCN(Cc6ccc(Cl)cc6)CC5)o4)cc3[nH]2)cc1 [5e, 2-((5-(2-(4-Methoxyphenyl)-1H-benzo[d]imidazol-6-yl)-1,3,4-oxadiazol-2-yl)thio)-1-(4-(4-chlorobenzyl)piperazin-1-yl)ethan-1-one]
IC50 [1]: ≥ 100 µM
IC50 [2]: ≥ 100 µM
IC50 [3]: 45.6 ± 2.11 µM
IC50 [4]: ≥ 100 µM
IC50 [5]: ≥ 100 µM

melting point: 184.4 to 186.8 °C
Compound: CCOc1ccc(-c2nc3ccc(-c4nnc(SCC(=O)N5CCN(Cc6ccccc6)CC5)o4)cc3[nH]2)cc1 [5g, 2-((5-(2-(4-Ethoxyphenyl)-1H-benzo[d]imidazol-6-yl)-1,3,4-oxadiazol-2-yl)thio)-1-(4-benzylpiperazin-1-yl)ethan-1-one]
IC50 [1]: ≥ 100 µM
IC50 [2]: ≥ 100 µM
IC50 [3]: ≥ 100 µM
IC50 [4]: ≥ 100 µM
IC50 [5]: ≥ 100 µM

Compound: O=S(=O)(NCCc1c(C(c2ccc(O)cc2)c2[nH]c3ccccc3c2CCNS(=O)(=O)c2ccc(Cl)cc2)[nH]c2ccccc12)c1ccc(Cl)cc1 [compound 47]
Experimental pIC50 (aromatase): 5.854

Compound: CCn1c2ccccc2c2cc(C(c3[nH]c4ccccc4c3CCNS(=O)(=O)c3ccccc3)c3[nH]c4ccccc4c3CCNS(=O)(=O)c3ccccc3)ccc21 [compound 58]
Experimental pIC50 (aromatase): 5.409

Compound: O=S(=O)(NCCc1c(C(c2ccc(F)cc2)c2[nH]c3ccccc3c2CCNS(=O)(=O)c2ccc(Cl)cc2)[nH]c2ccccc12)c1ccc(Cl)cc1 [compound 41]
Experimental pIC50 (aromatase): 5.268

Compound: CCn1cc(C(c2ccc(F)cc2)n2cncn2)c2cc(Br)ccc21 (centres unmarked) [123S]
Experimental pIC50 (aromatase): 5.149

Compound: O=[N+]([O-])c1ccc(C(c2[nH]c3ccccc3c2CCNS(=O)(=O)c2ccc(Br)cc2)c2[nH]c3ccccc3c2CCNS(=O)(=O)c2ccc(Br)cc2)cc1 [compound 32]
Experimental pIC50 (aromatase): 5.569

Compound: N#Cc1ccc(C(c2[nH]c3ccccc3c2CCNS(=O)(=O)c2ccc(C(F)(F)F)cc2)c2[nH]c3ccccc3c2CCNS(=O)(=O)c2ccc(C(F)(F)F)cc2)cc1 [compound 37]
Experimental pIC50 (aromatase): 4.815

melting point: 177.5 to 178.4 °C
Compound: CCOc1ccc(-c2nc3ccc(-c4nnc(SCC(=O)N5CCN(Cc6ccc(Cl)cc6)CC5)o4)cc3[nH]2)cc1 [5h, 2-((5-(2-(4-Ethoxyphenyl)-1H-benzo[d]imidazol-6-yl)-1,3,4-oxadiazol-2-yl)thio)-1-(4-(4-chlorobenzyl)piperazin-1-yl)ethan-1-one]
IC50 [1]: ≥ 100 µM
IC50 [2]: ≥ 100 µM
IC50 [3]: ≥ 100 µM
IC50 [4]: ≥ 100 µM
IC50 [5]: ≥ 100 µM

Compound: N#Cc1ccc([C@H](c2ccc3[nH]ccc3c2)n2ccnc2)cc1 [5R]
Experimental pIC50 (aromatase): 7.714

Compound: O=C1Nc2ccccc2C1(c1[nH]c2ccccc2c1CCNS(=O)(=O)c1ccccc1[N+](=O)[O-])c1[nH]c2ccccc2c1CCNS(=O)(=O)c1ccccc1[N+](=O)[O-] [compound 62]
Experimental pIC50 (aromatase): 5.009

Compound: OCc1cn(-c2ccccc2Cl)c2ccccc12 [compound 108]
Experimental pIC50 (aromatase): 7.268

Compound: O=S(=O)(NCCc1c(C(c2ccc(Br)cc2)c2[nH]c3ccccc3c2CCNS(=O)(=O)c2ccc(C(F)(F)F)cc2)[nH]c2ccccc12)c1ccc(C(F)(F)F)cc1 [compound 39]
Experimental pIC50 (aromatase): 5.469

Compound: OCc1cn(-c2ccccc2F)c2ccccc12 [compound 109]
Experimental pIC50 (aromatase): 6.907

Compound: COc1cccc2c1C(=O)c1c(O)c3c(c(O)c1C2=O)C[C@@](O)(C(=O)CO)C[C@@H]3O[C@H]1C[C@H](N)[C@H](O)[C@H](C)O1 [Dox., doxorubicin]
IC50 [2]: 28.7 ± 1.23 µM

Compound: Cc1ccc2nc(-c3ccc(-c4nnc5n4N=C(c4ccc(F)cc4)CS5)cc3)[nH]c2c1 [compound 80]
Experimental pIC50 (aromatase): 5.906

Compound: Cc1[nH]c2ccccc2c1C=NNc1cccc(F)c1 [compound 104]
Experimental pIC50 (aromatase): 4.939

Compound: O=[N+]([O-])c1ccc(C(c2[nH]c3ccccc3c2CCNS(=O)(=O)c2ccc(C(F)(F)F)cc2)c2[nH]c3ccccc3c2CCNS(=O)(=O)c2ccc(C(F)(F)F)cc2)cc1 [compound 34]
Experimental pIC50 (aromatase): 5.398

Compound: O=[N+]([O-])c1ccc(S(=O)(=O)NCCc2c(C(c3ccc(O)cc3)c3[nH]c4ccccc4c3CCNS(=O)(=O)c3ccc([N+](=O)[O-])cc3)[nH]c3ccccc23)cc1 [compound 49]
Experimental pIC50 (aromatase): 5.638

Compound: N#Cc1ccc(-n2cc(Cn3ccnc3)c3ccccc32)cc1 [compound 116]
Experimental pIC50 (aromatase): 5.851

Compound: Clc1ccccc1-n1cc(Cn2cncn2)c2ccccc21 [compound 113]
Experimental pIC50 (aromatase): 5.456

Compound: O=S(=O)(NCCc1c(C(c2ccc(O)cc2)c2[nH]c3ccccc3c2CCNS(=O)(=O)c2ccc(C(F)(F)F)cc2)[nH]c2ccccc12)c1ccc(C(F)(F)F)cc1 [compound 48]
Experimental pIC50 (aromatase): 5.886

Compound: COc1ccc2cc(Cn3ccnc3)n(-c3ccc(F)cc3)c2c1 [compound 21]
Experimental pIC50 (aromatase): 7.310

Compound: Cc1ccc(S(=O)(=O)NCCc2c(C(c3ccccc3O)c3[nH]c4ccccc4c3CCNS(=O)(=O)c3ccc(C)cc3)[nH]c3ccccc23)cc1 [compound 50]
Experimental pIC50 (aromatase): 5.387

Compound: O=S(=O)(NCCc1c(C(c2ccc(C(F)(F)F)cc2)c2[nH]c3ccccc3c2CCNS(=O)(=O)c2ccc(C(F)(F)F)cc2)[nH]c2ccccc12)c1ccc(C(F)(F)F)cc1 [compound 45]
Experimental pIC50 (aromatase): 5.638

Compound: CCn1cc([C@@H](c2ccc(F)cc2)n2ccnc2)c2cc(C#N)ccc21 [76R]
Experimental pIC50 (aromatase): 6.495

melting point: 172.6 to 174.8 °C
Compound: COc1ccc(-c2nc3ccc(-c4nnc(SCC(=O)N5CCN(Cc6ccccc6)CC5)o4)cc3[nH]2)cc1 [5d, 2-((5-(2-(4-Methoxyphenyl)-1H-benzo[d]imidazol-6-yl)-1,3,4-oxadiazol-2-yl)thio)-1-(4-benzylpiperazin-1-yl)ethan-1-one]
IC50 [1]: ≥ 100 µM
IC50 [2]: 88.5 ± 3.41 µM
IC50 [3]: ≥ 100 µM
IC50 [4]: ≥ 100 µM
IC50 [5]: ≥ 100 µM

Compound: CCn1cc([C@@H](c2ccc(F)cc2)n2cncn2)c2cc(Br)ccc21 [123R]
Experimental pIC50 (aromatase): 5.149

Compound: COc1ccc(S(=O)(=O)NCCc2c(C(c3ccc(O)cc3)c3[nH]c4ccccc4c3CCNS(=O)(=O)c3ccc(OC)cc3)[nH]c3ccccc23)cc1 [compound 46]
Experimental pIC50 (aromatase): 6.155

Compound: CCn1cc([C@@H](c2ccc(F)cc2)n2cncn2)c2cc(Br)ccc21 [119R]
Experimental pIC50 (aromatase): 6.016

Compound: O=S(=O)(NCCc1c(C(c2ccc(C(F)(F)F)cc2)c2[nH]c3ccccc3c2CCNS(=O)(=O)c2ccc(Cl)cc2)[nH]c2ccccc12)c1ccc(Cl)cc1 [compound 44]
Experimental pIC50 (aromatase): 5.495

Compound: O=[N+]([O-])c1ccc(S(=O)(=O)NCCc2c(C(c3ccccc3)c3[nH]c4ccccc4c3CCNS(=O)(=O)c3ccc([N+](=O)[O-])cc3)[nH]c3ccccc23)cc1 [compound 30]
Experimental pIC50 (aromatase): 4.951

Compound: COc1ccc(S(=O)(=O)NCCc2c(C3(c4[nH]c5ccccc5c4CCNS(=O)(=O)c4ccc(OC)cc4)C(=O)Nc4ccccc43)[nH]c3ccccc23)cc1 [compound 59]
Experimental pIC50 (aromatase): 5.553

Compound: Cc1[nH]c2ccccc2c1C=NNc1cc(F)cc(F)c1 [compound 105]
Experimental pIC50 (aromatase): 4.886

Compound: CCn1c([C@H](c2cccc(Cl)c2)n2ccnc2)c(C)c2cc(Br)ccc21 [69S]
Experimental pIC50 (aromatase): 6.027

Compound: CCn1c([C@@H](c2cccc(Cl)c2)n2ccnc2)c(C)c2cc(Br)ccc21 [69R]
Experimental pIC50 (aromatase): 6.027

Compound: Cc1ccc(S(=O)(=O)NCCc2c(C(c3ccccc3)c3[nH]c4ccccc4c3CCNS(=O)(=O)c3ccc(C)cc3)[nH]c3ccccc23)cc1 [compound 29]
Experimental pIC50 (aromatase): 4.924

Compound: COc1ccc(-n2c(Cn3ccnc3)cc3ccc(Cl)cc32)cc1 [compound 26]
Experimental pIC50 (aromatase): 6.692

Compound: Fc1ccc(C2=Nn3c(nnc3-c3ccc(-c4nc5ccc(Cl)cc5[nH]4)cc3)SC2)cc1 [compound 102]
Experimental pIC50 (aromatase): 5.643

Compound: O[C@@](c1ccc(Br)cc1)(c1cccnc1)c1cc2ccccc2o1 [85S]
Experimental pIC50 (aromatase): 4.600

Compound: CCn1cc([C@H](c2ccccc2Cl)n2ccnc2)c2cc(Br)ccc21 [121R]
Experimental pIC50 (aromatase): 6.009

Compound: CCn1cc([C@H](c2ccc(Cl)cc2Cl)n2cccc2)c2cc(Br)ccc21 [118R]
Experimental pIC50 (aromatase): 6.478
